The compounds below were run on Hedgehog signalling pathway (assay: Gli-reporter NIH3T3 luciferase assay (Hedgehog pathway inhibition)). Conditions: NIH3T3; Gli-reporter NIH-3T3 cells, recombinant mouse sonic hedgehog, 24 hours, luminescence; read-out: Category (Hedgehog pathway inhibition activity, IC50).
Type: cell-based
Summary of the method: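 Mouse NIH3T3 cells with Gli-responsive luciferase reporter, pre-treated 1 h with compound (top final concentration 1 μM, 0.1% DMSO) in 0.5% calf serum medium. Then stimulated with recombinant mouse sonic hedgehog for 24 h at 37° C. Luminescence read-out (OneGLO), triplicates; IC50 reported.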

Compound	IC50 [nM]
Cn1nccc1-c1nnc(N2CCC(NCc3ccccc3[N+](=O)[O-])CC2)c2ccccc12 [Example 31, 1-[4-(2-methylpyrazol-3-yl)phthalazin-1-yl]-N-[(2-nitrophenyl)methyl]piperidin-4-amine]	10 to 200
Cn1nccc1-c1nnc(N2CCC(NC(=O)Nc3cccc(C(F)(F)F)c3)CC2)c2ccccc12 [Example 13, 1-[1-[4-(2-methylpyrazol-3-yl)phthalazin-1-yl]-4-piperidyl]-3-[3-(trifluoromethyl)phenyl]urea]	< 10
Cn1nccc1-c1nnc(N2CCC(N(Cc3ccc(F)cc3C(F)(F)F)C(=O)C(F)(F)F)CC2)c2ccccc12 [Example 56, 2,2,2-trifluoro-N-[[4-fluoro-2-(trifluoromethyl)phenyl]methyl]-N-[1-[4-(2-methylpyrazol-3-yl)phthalazin-1-yl]-4-piperidyl]acetamide]	10 to 200
Cn1nccc1-c1nnc(N2CCC(NC(=O)Nc3ccccc3OC(F)(F)F)CC2)c2ccccc12 [Example 25, 1-[1-[4-(2-methylpyrazol-3-yl)phthalazin-1-yl]-4-piperidyl]-3-[2-(trifluoromethoxy)phenyl]urea]	< 10

Further lines, results first:

IC50 [nM]	Compound
< 10	Cn1nccc1-c1nnc(N2CCC(NC(=O)Nc3ccc(C#N)cc3)CC2)c2ccccc12 [Example 32, 1-(4-cyanophenyl)-3-[1-[4-(2-methylpyrazol-3-yl)phthalazin-1-yl]-4-piperidyl]urea]
10 to 200	CC(C)c1ccccc1CN(C)C1CCN(c2nnc(-c3ccnn3C)c3ccccc23)CC1 [Example 29, N-[(2-isopropylphenyl)methyl]-N-methyl-1-[4-(2-methylpyrazol-3-yl)phthalazin-1-yl]piperidin-4-amine]
200 to 2000	Cn1nccc1-c1nnc(N2CCC(NCc3ccc(F)cc3)CC2)c2ccccc12 [Example 75, N-[(4-fluorophenyl)methyl]-1-[4-(2-methylpyrazol-3-yl)phthalazin-1-yl]piperidin-4-amine]

Same assay, conditions: NIH3T3; Gli-reporter NIH-3T3 cells, recombinant mouse sonic hedgehog, 24 hours, luminescence; read-out: Gli Luc nM (IC50)

Compound	IC50 [nM]
Cc1c(-c2ccnn2C)nnc(N2CCC(N(C)C(=O)Nc3ccc(F)cc3C(F)(F)F)CC2)c1C [Example 151, 1-[1-[4,5-dimethyl-6-(2-methylpyrazol-3-yl)pyridazin-3-yl]-4-piperidyl]-3-[4-fluoro-2-(trifluoromethyl)phenyl]-1-methyl-urea]	5.12

Same assay, conditions: NIH3T3; Gli-reporter NIH-3T3 cells, recombinant mouse sonic hedgehog, 24 hours, luminescence; read-out: Gli luc IC50

Compound	IC50 [nM]
Cn1nccc1-c1nnc(N2CCC(NCc3cccnc3C(F)(F)F)CC2)c2ccccc12 [Example 155, 1-[4-(2-methylpyrazol-3-yl)phthalazin-1-yl]-N-[[2-(trifluoromethyl)-3-pyridyl]methyl]piperidin-4-amine]	< 10
Cn1nccc1-c1nnc(N2CCC(NCc3ccccc3S(C)(=O)=O)CC2)c2ccccc12 [Example 115, 1-[4-(2-methylpyrazol-3-yl)phthalazin-1-yl]-N-[(2-methylsulfonylphenyl)methyl]piperidin-4-amine]	10 to 200
CN(Cc1ccc(F)cc1C(F)(F)F)C1CCN(c2nnc(N3CCOCC3)c3ccccc23)CC1 [Example 144, N-[[4-fluoro-2-(trifluoromethyl)phenyl]methyl]-N-methyl-1-(4-morpholinophthalazin-1-yl)piperidin-4-amine]	> 200
COc1ccc(-c2nnc(N3CCC(NS(=O)(=O)c4ccc(F)cc4C(F)(F)F)CC3)c(C)c2C)cn1 [Example 117, 4-fluoro-N-[1-[6-(6-methoxy-3-pyridyl)-4,5-dimethyl-pyridazin-3-yl]-4-piperidyl]-2-(trifluoromethyl)benzenesulfonamide]	10 to 200
Cc1c(-c2ccncc2)nnc(N2CCC(NS(=O)(=O)c3ccc(F)cc3C(F)(F)F)CC2)c1C [Example 119, N-[1-[4,5-dimethyl-6-(4-pyridyl)pyridazin-3-yl]-4-piperidyl]-4-fluoro-2-(trifluoromethyl)benzenesulfonamide]	10 to 200
CN(Cc1cccnc1C(F)(F)F)C1CCN(c2nnc(-c3ccnn3C)c3ccccc23)CC1 [Example 157, N-methyl-1-[4-(2-methylpyrazol-3-yl)phthalazin-1-yl]-N-[[2-(trifluoromethyl)-3-pyridyl]methyl]piperidin-4-amine]	< 10
Cc1cc(-c2nnc(N3CCC(NS(=O)(=O)c4ccc(F)cc4C(F)(F)F)CC3)c(C)c2C)ccn1 [Example 118, N-[1-[4,5-dimethyl-6-(2-methyl-4-pyridyl)pyridazin-3-yl]-4-piperidyl]-4-fluoro-2-(trifluoromethyl)benzenesulfonamide]	> 200
Cc1c(-c2ccncc2)nnc(N2CCC(NCc3ccc(F)cc3C(F)(F)F)CC2)c1C [Example 123, 1-[4,5-dimethyl-6-(4-pyridyl)pyridazin-3-yl]-N-[[4-fluoro-2-(trifluoromethyl)phenyl]methyl]piperidin-4-amine]	10 to 200
Cn1nccc1-c1nnc(N2CCC(NCc3cccc(C#N)c3)CC2)c2c1CCC2 [Example 149, 3-[[[1-[1-(2-methylpyrazol-3-yl)-6,7-dihydro-5H-cyclopenta[d]pyridazin-4-yl]-4-piperidyl]amino]methyl]benzonitrile]	> 200
Cn1nccc1-c1nnc(N2CCC(NCc3ccc(F)cc3C(F)(F)F)CC2)c2c1CCC2 [Example 148, N-[[4-fluoro-2-(trifluoromethyl)phenyl]methyl]-1-[1-(2-methylpyrazol-3-yl)-6,7-dihydro-5H-cyclopenta[d]pyridazin-4-yl]piperidin-4-amine]	10 to 200
CN(Cc1cnccc1C(F)(F)F)C1CCN(c2nnc(-c3ccnn3C)c3ccccc23)CC1 [Example 154, N-methyl-1-[4-(2-methylpyrazol-3-yl)phthalazin-1-yl]-N-[[4-(trifluoromethyl)-3-pyridyl]methyl]piperidin-4-amine]	< 10
Cn1nccc1-c1nnc(N2CCC(NS(=O)(=O)c3ccc(F)cc3C(F)(F)F)CC2)c2c1CCC2 [Example 159, 4-fluoro-N-[1-[1-(2-methylpyrazol-3-yl)-6,7-dihydro-5H-cyclopenta[d]pyridazin-4-yl]-4-piperidyl]-2-(trifluoromethyl)benzenesulfonamide]	< 10

The remaining lines, values ahead:

IC50 [nM]	Compound
10 to 200	CN(Cc1ccc(F)cc1C(F)(F)F)C1CCN(c2nnc(-c3ccnn3C)c3c2CCC3)CC1 [Example 132, N-[[4-fluoro-2-(trifluoromethyl)phenyl]methyl]-N-methyl-1-[1-(2-methylpyrazol-3-yl)-6,7-dihydro-5H-cyclopenta[d]pyridazin-4-yl]piperidin-4-amine]
< 10	CN(C(=O)Nc1ccc(F)cc1C(F)(F)F)C1CCN(c2nnc(-c3ccnn3C)c3cccnc23)CC1 [Example 137, 3-[4-fluoro-2-(trifluoromethyl)phenyl]-1-methyl-1-[1-[5-(2-methylpyrazol-3-yl)pyrido[2,3-d]pyridazin-8-yl]-4-piperidyl]urea]
10 to 200	CN(C1CCN(c2nnc(-c3ccnn3C)c3ccncc23)CC1)S(=O)(=O)c1ccc(F)cc1C(F)(F)F [Example 103, 4-fluoro-N-methyl-N-[1-[1-(2-methylpyrazol-3-yl)pyrido[3,4-d]pyridazin-4-yl]-4-piperidyl]-2-(trifluoromethyl)benzenesulfonamide]
< 10	Cc1nc(C(F)(F)F)c(CN(C)C2CCN(c3nnc(-c4ccnn4C)c4ccccc34)CC2)s1 [Example 96, N-methyl-1-[4-(2-methylpyrazol-3-yl)phthalazin-1-yl]-N-[[2-methyl-4-(trifluoromethyl)thiazol-5-yl]methyl]piperidin-4-amine]
10 to 200	Cc1c(-c2ccnn2C)nnc(N2CCC(N(C)Cc3ccccc3C(C)C)CC2)c1C [Example 82, 1-[4,5-dimethyl-6-(2-methylpyrazol-3-yl)pyridazin-3-yl]-N-[(2-isopropylphenyl)methyl]-N-methyl-piperidin-4-amine]
> 200	CSc1ccccc1CN(C)C1CCN(c2nnc(-c3ccnn3C)c(C)c2C)CC1 [Example 88, 1-[4,5-dimethyl-6-(2-methylpyrazol-3-yl)pyridazin-3-yl]-N-methyl-N-[(2-methylsulfanylphenyl)methyl]piperidin-4-amine]
< 10	Cc1c(-c2ccnn2C)nnc(N2CCC(N(C)C(=O)Nc3ccc(F)cc3C(F)(F)F)CC2)c1C [Example 151, 1-[1-[4,5-dimethyl-6-(2-methylpyrazol-3-yl)pyridazin-3-yl]-4-piperidyl]-3-[4-fluoro-2-(trifluoromethyl)phenyl]-1-methyl-urea]
10 to 200	Cc1c(-c2ccnn2C)nnc(N2CCC(N(C)C(=O)Nc3ccccc3F)CC2)c1C [Example 126, 1-[1-[4,5-dimethyl-6-(2-methylpyrazol-3-yl)pyridazin-3-yl]-4-piperidyl]-3-(2-fluorophenyl)-1-methyl-urea]
10 to 200	CN(C(=O)Nc1ccc(F)cc1F)C1CCN(c2nnc(-c3ccnn3C)c3ccncc23)CC1 [Example 111, 3-(2,4-difluorophenyl)-1-methyl-1-[1-[1-(2-methylpyrazol-3-yl)pyrido[3,4-d]pyridazin-4-yl]-4-piperidyl]urea]
> 200	Cc1c(-c2ccnn2C)nnc(N2CCC(N(C)C(=O)Nc3ccc(F)cc3)CC2)c1C [Example 113, 1-[1-[4,5-dimethyl-6-(2-methylpyrazol-3-yl)pyridazin-3-yl]-4-piperidyl]-3-(4-fluorophenyl)-1-methyl-urea]
10 to 200	Cc1c(-c2ccnn2C)nnc(N2CCC(NC(=O)NC3(C(F)(F)F)CC3)CC2)c1C [Example 108, 1-[1-[4,5-dimethyl-6-(2-methylpyrazol-3-yl)pyridazin-3-yl]-4-piperidyl]-3-[1-(trifluoromethyl)cyclopropyl]urea]
10 to 200	CN(C1CCN(c2nnc(-c3ccnn3C)c3c2CCC3)CC1)S(=O)(=O)c1ccc(F)cc1C(F)(F)F [Example 124, 4-fluoro-N-methyl-N-[1-[1-(2-methylpyrazol-3-yl)-6,7-dihydro-5H-cyclopenta[d]pyridazin-4-yl]-4-piperidyl]-2-(trifluoromethyl)benzenesulfonamide]
10 to 200	Cc1c(-c2ccnn2C)nnc(N2CCC(NC(=O)Nc3ccc(F)cc3C(F)(F)F)CC2)c1C [Example 100, 1-[1-[4,5-dimethyl-6-(2-methylpyrazol-3-yl)pyridazin-3-yl]-4-piperidyl]-3-[4-fluoro-2-(trifluoromethyl)phenyl]urea]
